According to a melting point compilation (Tetko et al.; mined from patent text by program, amines drawn as free bases though some values may be those of a salt):

Structure (SMILES) | melting point [°C]
COc1ccccc1NC(=O)Nc1nc(Nc2ccccc2-c2ccccc2)nc(N(CCC(=O)O)Cc2ccc(-c3ccccc3)cc2)n1 | 144 to 147
CCCCCCCCCCCCCCCCCC(=O)N[C@H]1CCCNC(=O)C1 | 87 to 88
CC(=O)n1c2ccccc2c2nc3ccccc3cc21 | 163 to 165
O=C1CC(c2cccc(-n3ccnc3)c2)=Nc2ccc(-c3ccccc3F)cc2N1 | 179 to 182
CC(=Cc1ccccc1)c1ccc2c(c1)S(=O)(=O)CCC2(C)C | 148 to 150
CCCOc1ccc(S(=O)(=O)N2CCN(C(C)=O)CC2)cc1-c1nc2cc(Cl)c([N+](=O)[O-])cc2c(=O)[nH]1 | 215 to 217
CC(C)(C)NC(=O)/C=C/c1ccc(C(=O)c2c(-c3ccc(O)cc3)sc3cc(O)ccc23)cc1 | 187 to 190
CC(=O)Nc1ccc(C(C)=NNc2ccc(C3=NNC(=O)CC3C)cc2)cc1 (stereo not given) | 145 to 155
O=C(O)c1ccc2ccc3ccc(C(=O)O)cc3c2c1 | 390
O=C(Cc1ccn(-c2ccc(F)cc2)c1)N1C(=O)OC[C@@H]1Cc1ccccc1 | 106 to 108
CC(C)(CC(=O)Nc1ccc2oc(-c3ccc4ccc(Cl)cc4n3)cc2c1)C(=O)O | 228 to 230
CN(CC(=O)O)C(=S)c1cc(-c2ccccc2)nc2ccccc12 | 228 to 230
CCOC(=O)CC(O)c1ccc(-c2ccc([N+](=O)[O-])cc2)o1 (stereo not given) | 79 to 81
O=C(O)[C@H](Cc1cccc(OCC(F)(F)C(F)F)c1)[C@@H](O)c1ccc(F)cc1 (racemic) | 114 to 115
Cc1cccc2c1CCC(=O)C2(O)C(F)(F)F (stereo not given) | 122 to 123
O=C(O)c1cc(CN2C(=O)C3(COc4cc5c(cc43)OCO5)c3ccccc32)oc1C(F)(F)F (stereo not given) | 195 to 197
Cc1ccccc1-n1ccc2nnc3c(C)cccc3c21 | 105 to 106
CCCCCC(CCCCC)n1c(=O)sc2c(=O)[nH]c(N)nc21 | > 195
Fc1ccc(Nc2nnc(Cc3ccncc3)c3ccccc23)cc1 | 129 to 131
CC1(C)Nc2ccccc2-c2c(N)cnn21 | 181 to 183
CCOC(=O)/C=C/c1c2c(nn1-c1ccc(F)cc1)C(Cc1ccccc1)CCC2 (stereo not given) | 117 to 118
CC(=NO)c1nn(C)c2cc(OCC3CC3(Cl)Cl)c(F)cc12 (stereo not given) | 150 to 152
O=C1c2ccccc2S(=O)(=O)N1CSc1nnc(SCCN2CCCCC2)s1 | 100 to 101
CCOC(=O)CC(Cc1ccccc1)NC(=O)c1ccc(OC)cc1 (stereo not given) | 102 to 104

Structure (SMILES) | melting point [°C]
COc1ccc(N2CCN(c3c(C)c(C)c4c(c3C)CC(C)(C)O4)CC2)cc1C | 137 to 141
O=[N+]([O-])c1ccc2sc(CCl)cc2c1 | 110 to 112
CCCCCCc1ccc(/C(Cl)=C/c2ccc(Br)cc2)cc1 | 52
CCCc1nc2c(N)nc3c(c2n1CC1(O)CCCC1)NCCC3 | 207 to 208
COc1ccc2c3c(cnc2c1)CCCC3O[Si](C)(C)C(C)(C)C (stereo not given) | 102 to 104
CCCNC(=O)c1cc(-c2ccc(OC)cc2)nn(CC2CC2)c1=O | 101 to 102
CC1(C)Oc2ccc(C#N)cc2[C@@H](NC(=O)c2cscc2-n2cccc2)[C@@H]1O | 174 to 175
C#CCOc1ccc2c(C(=O)OCC)cc(=O)oc2c1 | 230
O=C1c2ccccc2C(=O)N1Cc1ccc(OCCCCc2ccccc2)cc1 | 106 to 108
CC(CNc1ccc(C(=O)O)cc1)Oc1ccccc1 (stereo not given) | 140 to 144
CC1CC2C(C(O)CC3(C)C2CCC3(O)C(=O)COCc2ccccc2[N+](=O)[O-])C2(C)C=CC(=O)C=C12 (stereo not given) | 116 to 119
C[C@H]1CC[C@H]2C(C)(C)[C@H](OS(=O)(=O)c3ccccc3)CC[C@]23Oc2c(c(O)cc4c2CNC4=O)C[C@]13C | 160 to 162
COc1ccc(C(=O)Nc2ccccc2)cc1Nc1cccc(Cl)c1 | 168 to 170
Clc1cccnc1-c1ccc2[nH]nc(Nc3cnccn3)c2c1 | 228 to 230
CCCOc1ccc(-c2ccc3c(c2)C=C(C(=O)Nc2ccc(CN(C)C4CCOCC4)cc2)CCS3(=O)=O)cc1 | 244 to 247
CCOC(=O)c1cn(C2CC2)c2nc(N3CCC(NC)C3)c(F)cc2c1=O (stereo not given) | 164 to 166
N#CCC(=O)Nc1ccc(-c2ncc(C(=O)O)c(O)n2)cc1 | > 280
Cc1c(F)cc(C(=N)N)c(Oc2ncccc2Oc2cccnc2)c1F | 213 to 214
CCOC(=O)c1cn(-c2nnn[nH]2)c2cc(F)c(F)cc2c1=O | 233 to 236
CCC(CCOC)c1ccc(Cl)c2nc3n(c12)CCCN3c1ccc(Cl)cc1Cl (stereo not given) | 144 to 146
COc1ccccc1-c1nc(-c2ccccc2)nc(-c2ccccc2O)n1 | 153 to 155
Cc1c(Br)c2c(c(C)c1NC(=O)CC(C)(C)C)CC(C)(C)O2 | 205 to 206
Nc1cc(CCC(=O)N2CCCCC2)ccc1O | 149 to 150
CCN/C(=C1/Sc2ccccc2C1=O)c1ccccc1CC | 76 to 77

Structure (SMILES) | melting point [°C]
COc1ccccc1C1(N[C@H](CO)c2ccccc2)C(=O)Nc2ccc(Cl)cc21 (stereo not given in full) | 172 to 173
COC(=O)c1cccc(C(=O)Nc2ccc(-n3nc(C(F)(F)F)cc3C(F)(F)F)cc2)c1 | 174 to 175
N#Cc1cnc2sc(-c3cccc(C=O)c3)cc2c1Cl | > 250
CC1(C)CC2(CC(C)(C)N1c1nc(Cl)nc(N3CCOCC3)n1)OCCO2 | 154 to 156
COC(=O)CN(C(=O)CCCOc1ccc2c(c1)CN1CC(=O)NC1=N2)C1CCCCC1 | 185 to 186
COc1cc(NC(C)=O)c(Cl)cc1C(=O)NN1CCN2CCCCC2C1 (stereo not given) | 200 to 201
CSc1cc2n(c1C(=O)c1ccc(Cl)cc1)CCC2C(=O)O (stereo not given) | 200 to 201
O=[N+]([O-])c1c(-c2ccc(Cl)cc2)[nH]c(SC(F)(F)F)c1Br | 160 to 165
COc1cc(NC(=O)Nc2ccc(C3CCN(C(=O)Nc4ccc(OCCO)cc4Cl)CC3)cc2)cc(OC)c1 | 101 to 105
CCCN(CCCC12CC3CC(CC(C3)C1)C2)C(=O)NCc1ccncc1 | 96 to 98
CCCCCCCCN(C(=O)Nc1ccc(C(=O)O)cc1)c1ccc2c(c1)C(C)(C)CCC2(C)C | 166 to 167
CCOC(=O)c1oc(-c2ccccc2)cc(=O)c1Cl | 121
NC(=O)C1CN(Cc2ccccc2)CC1O (stereo not given) | 128
CCC1(CC)NC(=O)Oc2ccccc21 | 160 to 162
CC1(C)COc2cc(Cl)c(F)cc2C(O)(c2ccccn2)C1 (stereo not given) | 100
N=C(Nc1ccc2c(C3CN4CCC3CC4)c[nH]c2c1)c1cccs1 (stereo not given) | 144 to 146
O=c1[nH]c2c(Cl)cccc2c(=O)n1CCCN1CC=C(c2cccc(C(F)(F)F)c2)CC1 | 205 to 210
CC(C)CC(NC(=O)O)C(=O)NC(C)(C)C#N (stereo not given) | 166 to 168
CCCCCCCCCCN1C(=O)C2C3CCC(O3)C2C1=O (stereo not given) | 30 to 31
CCOc1ccccc1C=C1CCc2c1nc1ccc(C(=O)O)cn1c2=O | 328 to 332
Cc1oc2cc3sc4ccccc4c3c(-c3cc(I)c(O[C@H](C)C(=O)O)c(I)c3)c2c1C | 218 to 219
CCOC(=O)c1ccc(C(=O)Nc2ccc3c(c2)C(C)(C)CC(=O)N3C)cc1 | 197 to 199
